Results: patent publication US20160089471A1, “SHEET FOR CUTANEOUS APPLICATION CONTAINING VITAMIN E OR AN ESTER THEREOF” (BIO.LO.GA. S.R.L., priority 2013, published 2016)

Legend:
[1] = tested on: reconstituted human epidermis Epi-200 EpiDerm™; assay: Release of IL-1α in the culture medium (ELISA); conditions: 18-hour treatment; Tukey Kramer Multiple Comparisons Test
Description: Further information for better defining the irritation potential was obtained from subsequent measurement of the following parameters: • evaluation of the release, in the culture medium, of the lactate dehydrogenase (LDH), a cytoplasmic enzyme, release of which indicates loss of integrity of the cellular membrane; • evaluation of the release, in the culture medium, of pro-inflammatory cytokine by means of ELISA (Enzyme Linked Immunosorbent Assay).
Tissue used: EPI-200-SIT EpiDerm™
Culture medium: EPI-100-MM-HCF-60
(§1) Incubation conditions: +37° C. in a 5% CO2 atmosphere
(§2) Treatment with the sample: • continuous contact and incubation for 18 hours (single) • continuous contact and incubation for 7 days (double)
(§3) Application was carried out by applying about 1 cm^2 of sample (i.e. of the sheet according to the invention obtained as per the example given above) per insert.
Controls Performed for the First Evaluation (18 hours): • Negative control after 18 hours: inserts not treated • Positive control: inserts treated with 0.5% SDS (Sodium Dodecylsulphate) in sterile water during 18 hours of incubation; […]
Evaluation in the culture medium obtained after the period of incubation of the sample with EPI-200. The release is measured by means of specific ELISA.

[2] = tested on: reconstituted human epidermis Epi-200 EpiDerm™; assay: Cytotoxicity by release of lactate dehydrogenase (LDH) in the culture medium; conditions: 18-hour treatment; Tukey Kramer Multiple Comparisons Test
Protocol: Tissue used: EPI-200-SIT EpiDerm™
Culture medium: EPI-100-MM-HCF-60
as §1, §2, §3
(§4) Controls Performed for the First Evaluation (18 hours): • Negative control after 18 hours: inserts not treated • Positive control: inserts treated with 0.5% SDS (Sodium Dodecylsulphate) in sterile water during 18 hours of incubation;
(§5) Controls Performed for the 7-Day Evaluation: • Negative control: inserts not treated with the sample and kept for 7 days in the same incubation conditions as those treated with the sample.
Evaluation of the Cytotoxicity by Means of Measurement of the Release of the Lactate Dehydrogenase (LDH) in the Culture Medium:
Evaluation in the culture medium obtained after the incubation period of the sample with the epidermis model. The culture medium is incubated with a specific reagent so as to allow quantitive determination of the lactate dehydrogenase at 490 nm.

[3] = tested on: reconstituted human epidermis Epi-200 EpiDerm™; assay: Cellular vitality by MTT assay on reconstituted epidermis (EpiDerm Skin Irritation Test, cumulative irritation); conditions: 18-hour treatment
Protocol: The assay in question was based on the In vitro Epiderm™ Skin Irritation Test (EPI-200-SIT) developed by the MatTek Corporation, which uses the model of reconstituted human epidermis Epi-200 EpiDerm™.
The assay consists in topical application of the material under testing on the reconstituted epidermis for contact times equal to or greater than 18 hours. The irritation potential is determined by means of evaluation of the cellular vitality using the MTT assay.
Tissue used: EPI-200-SIT EpiDerm™
Culture medium: EPI-100-MM-HCF-60
as §1, §2, §4, §5
MTT assay: colorimetric determination of the vitality of the keratinocytes of the insert based on the reduction of the yellow tetrazolium salts (MTT) to blue formazan by mitochondrial dehydrogenases.
continuous stimulation (overnight contact and incubation)

Structure (SMILES): CCCCCCCCCCCCOS(=O)(=O)[O-].[Na+] [Positive control, Sodium Dodecylsulphate]
- Statistical comparison of IL-1α release in relation to the negative control [1]: *** (*** p < 0.001 extremely significant variation)
- Statistical comparison of LDH release in relation to the negative control [2]: *** (*** p < 0.001 extremely significant variation)
- Average value of OD ± SD ([3]; continuous contact): 0.185 ± 0.004
- Average value of the % vitality ([3]; relative to negative control = 100%): 8.40 ± 0.17%
